The results in this text go back to US8987195B2 (priority 2012, dated 2015).

This test has as its target HCV NS3/4A protease genotype 1b (Hepatitis C virus genotype 1b, UniProt P26663). The test is described as follows: HCV NS3/4A protease time-resolved fluorescence (TRF) assay, Ki against genotype 1b. The format is biochemical. The procedure: Measuring NS3/4A Inhibitory Activity (Ki) Against Genotype 1b, Against A156T Mutants and Against Genotype 3a
One assay for measuring inhibitory activity is HCV NS3 protease time-resolved fluorescence (TRF) assay as described below and in Mao et al., Anal. Biochem. 373:1-8, 2008 and International Patent Application Publication WO 2006/102087. A NS3 protease assay can be performed, for example, in a final volume of 20 μl assay buffer containing 50 mM HEPES, pH 7.5, 150 mM NaCl, 15% glycerol, 0.15% TRITON X-100, 10 mM DTT, and 0.1% PEG 8000. NS3 and NS4A protease is pre-incubated with various concentrations of inhibitors in DMSO for 30 min. The reaction is initiated by adding the TRF peptide substrate (final concentration 25 nM). NS3 mediated hydrolysis of the substrate was run for 2.5 hours at room temperature. Product fluorescence is detected using A Pherastar Plus plate reader (BMG) or Envision (Perkin Elmer Life and Analytical Sciences with excitation at 340 nm and emission at 615 nm using the appropriate delay time optimized for the europium fluorescence probe. Testing concentrations of different enzyme forms are selected to result in a signal to background ratio (S/B) of 10-30. IC50 values are derived using a standard four-parameter fit to the data. Ki values are derived from IC50 values using the following formula, IC50=Ki(1+[S]/KM), Eqn (1), where [S] is the concentration of substrate peptide in the reaction and KM is the Michaelis constant. See P. Gallinari et al., 38 BIOCHEM. 5620-32 (1999); P. Gallinari et al., 72 J. VIROL. 6758-69 (1998); M. Taliani et al., 240 ANAL. BIOCHEM. 60-67 (1996); Mao et al., Analytical Biochemistry 373: 1-8, 2008.
The assay described above was run against genotype 1b at a concentration of 0.2 nM, against A156T mutant strains at a concentration of 0.4 nM, and against genotype 3a at a concentration of 0.025 nM.

The mark [1] stands for this setting: IC50 [gt-1b] (nM), NS3/4A genotype 1b, enzyme 0.2 nM, K+ salt.
The mark [2] stands for this setting: IC50 [gt-1b] (nM), NS3/4A genotype 1b, enzyme 0.2 nM.
Where [3] appears, read: IC50 [gt-1b], NS3/4A protease TRF assay, genotype 1b enzyme 0.2 nM.

Consider `COc1ccc2nc(C)c3c(c2c1)CC[C@]1(C[C@H]2C(=O)N[C@]4(C(=O)NS(=O)(=O)C5(C)CC5)C[C@H]4/C=C\CCCCC[C@H](NC(=O)O[C@H](C)C(C)C)C(=O)N2C1)O3` [Example 214, (2R)-3-methylbutan-2-yl [(2R,6S,12Z,13aS,14aR,16aS)-9′-methoxy-5′-methyl-14a-{[(1-methylcyclopropyl)sulfonyl]carbamoyl}-5,16-dioxo-1,1′,2′,5,6,7,8,9,10,11,13a,14,14a,15,16,16a-hexadecahydrospiro[cyclopropa[e]pyrrolo[1,2-a][1,4]diazacyclopentadecine-2,3′-pyrano[2,3-c]quinolin]-6-yl]carbamate], for which the IC50 under setting [1] amounted to 0.005 nM.

For `COc1ccc2nc(C)c3c(c2c1)CC[C@]1(C[C@H]2C(=O)N[C@]4(C(=O)NS(=O)(=O)C5(C)CC5)C[C@H]4/C=C\CCCCC[C@H](NC(=O)O[C@@H](C)C(C)C)C(=O)N2C1)O3` [Example 215, (2S)-3-methylbutan-2-yl [(2R,6S,12Z,13aS,14aR,16aS)-9′-methoxy-5′-methyl-14a-{[(1-methylcyclopropyl)sulfonyl]carbamoyl}-5,16-dioxo-1,1′,2′,5,6,7,8,9,10,11,13a,14,14a,15,16,16a-hexadecahydrospiro[cyclopropa[e]pyrrolo[1,2-a][1,4]diazacyclopentadecine-2,3′-pyrano[2,3-c]quinolin]-6-yl]carbamate], under setting [1], the IC50 was 0.005 nM.

In turn, `Cc1nc2ccc(OC(F)(F)F)cc2c2c1O[C@@]1(C[C@H]3C(=O)N[C@]4(C(=O)NS(=O)(=O)C5(C)CC5)C[C@H]4/C=C\CCCCC[C@H](NC(=O)OC(C)(C)C)C(=O)N3C1)CC2(F)F` [Example 220, tert-butyl [(2S,6S,12Z,13aS,14aR,16aS)-1′,1′-difluoro-5′-methyl-14a-{[(1-methylcyclopropyl)sulfonyl]carbamoyl}-5,16-dioxo-9′-(trifluoromethoxy)-1,1′,2′,5,6,7,8,9,10,11,13a,14,14a,15,16,16a-hexadecahydrospiro[cyclopropa[e]pyrrolo[1,2-a][1,4]diazacyclopentadecine-2,3′-pyrano[2,3-c]quinolin]-6-yl]carbamate] returned an IC50 under setting [2] of 0.033 nM. `COc1ccc2nc(C3CC3)c3c(c2c1)C(F)(F)C[C@]1(C[C@H]2C(=O)N[C@]4(C(=O)NS(=O)(=O)C5(C)CC5)C[C@H]4/C=C\CCCCC[C@H](NC(=O)OC4CCCC4)C(=O)N2C1)O3` [Example 247, cyclopentyl [(2S,6S,12Z,13aS,14aR,16aS)-5′-cyclopropyl-1′,1′-difluoro-9′-methoxy-14a-{[(1-methylcyclopropyl)sulfonyl]carbamoyl}-5,16-dioxo-1,1′,2′,5,6,7,8,9,10,11,13a,14,14a,15,16,16a-hexadecahydrospiro[cyclopropa[e]pyrrolo[1,2-a][1,4]diazacyclopentadecine-2,3′-pyrano[2,3-c]quinolin]-6-yl]carbamate] returned an IC50 under setting [2] of 0.013 nM. Still for that read-out and setting: under `Cc1nc2ccc(C(F)(F)F)cc2c2c1O[C@]1(CC2)C[C@H]2C(=O)N[C@]3(C(=O)NS(=O)(=O)C4(C)CC4)C[C@H]3/C=C\CCCCC[C@H](NC(=O)OCC(C)C)C(=O)N2C1` [Example 253, 2-methylpropyl [(2R,6S,12Z,13aS,14aR,16aS)-5′-methyl-14a-{[(1-methylcyclopropyl)sulfonyl]carbamoyl}-5,16-dioxo-9′-(trifluoromethyl)-1,1′,2′,5,6,7,8,9,10,11,13a,14,14a,15,16,16a-hexadecahydrospiro[cyclopropa[e]pyrrolo[1,2-a][1,4]diazacyclopentadecine-2,3′-pyrano[2,3-c]quinolin]-6-yl]carbamate] stands 0.014 nM. In turn, `Cc1ccc2nc(C(F)(F)F)c3c(c2c1)CC[C@]1(C[C@H]2C(=O)N[C@]4(C(=O)NS(=O)(=O)C5(C)CC5)C[C@H]4/C=C\CCCCC[C@H](NC(=O)OCC(C)(C)C)C(=O)N2C1)O3` [Example 391, 2,2-dimethylpropyl [(2R,6S,12Z,13aS,14aR,16aS)-9′-methyl-14a-{[(1-methylcyclopropyl)sulfonyl]carbamoyl}-5,16-dioxo-5′-(trifluoromethyl)-1,1′,2′,5,6,7,8,9,10,11,13a,14,14a,15,16,16a-hexadecahydrospiro[cyclopropa[e]pyrrolo[1,2-a][1,4]diazacyclopentadecine-2,3′-pyrano[2,3-c]quinolin]-6-yl]carbamate] returned an IC50 under setting [3] of 0.026 nM. Under setting [3], `Cc1ccc2nc(C(F)(F)F)c3c(c2c1)CC[C@]1(C[C@H]2C(=O)N[C@]4(C(=O)NS(=O)(=O)C5(C)CC5)C[C@H]4/C=C\CCCCC[C@H](NC(=O)OC4CCCC4)C(=O)N2C1)O3` [Example 392, cyclopentyl [(2R,6S,12Z,13aS,14aR,16aS)-9′-methyl-14a-{[(1-methylcyclopropyl)sulfonyl]carbamoyl}-5,16-dioxo-5′-(trifluoromethyl)-1,1′,2′,5,6,7,8,9,10,11,13a,14,14a,15,16,16a-hexadecahydrospiro[cyclopropa[e]pyrrolo[1,2-a][1,4]diazacyclopentadecine-2,3′-pyrano[2,3-c]quinolin]-6-yl]carbamate] yielded an IC50 of 0.014 nM.

Take `Cc1ccc2nc(C(F)(F)F)c3c(c2c1)CC[C@]1(C[C@H]2C(=O)N[C@]4(C(=O)NS(=O)(=O)C5(C)CC5)C[C@H]4/C=C\CCCCC[C@H](NC(=O)OC(C)(C)C(F)(F)F)C(=O)N2C1)O3` [Example 393, 1,1,1-trifluoro-2-methylpropan-2-yl [(2R,6S,12Z,13aS,14aR,16aS)-9′-methyl-14a-{[(1-methylcyclopropyl)sulfonyl]carbamoyl}-5,16-dioxo-5′-(trifluoromethyl)-1,1′,2′,5,6,7,8,9,10,11,13a,14,14a,15,16,16a-hexadecahydrospiro[cyclopropa[e]pyrrolo[1,2-a][1,4]diazacyclopentadecine-2,3′-pyrano[2,3-c]quinolin]-6-yl]carbamate]: the IC50 under setting [3] amounted to 0.026 nM. Under setting [3], `Cc1nc2ccccc2c2c1O[C@]1(CC2)C[C@H]2C(=O)N[C@]3(C(=O)NS(=O)(=O)C4(C)CC4)C[C@H]3/C=C\CCCCC[C@H](Nc3nc(C4CC4)no3)C(=O)N2C1` [Example 394, (2R,6S,12Z,13aS,14aR,16aS)-6-[(3-cyclopropyl-1,2,4-oxadiazol-5-yl)amino]-5′-methyl-N-[(1-methylcyclopropyl)sulfonyl]-5,16-dioxo-1,1′,2′,6,7,8,9,10,11,13a,14,15,16,16a-tetradecahydrospiro[cyclopropa[e]pyrrolo[1,2-a][1,4]diazacyclopentadecine-2,3′-pyrano[2,3-c]quinoline]-14a(5H)-carboxamide] came in with an IC50 of 0.057 nM. The same measure, in the same setting: under `Cc1ccc2nc(C(F)(F)F)c3c(c2c1)CC[C@]1(C[C@H]2C(=O)N[C@]4(C(=O)NS(=O)(=O)C5(C)CC5)C[C@H]4/C=C\CCCCC[C@H](NC(=O)O[C@H](C)C(C)C)C(=O)N2C1)O3` [Example 395, (2R)-3-methylbutan-2-yl [(2R,6S,12Z,13aS,14aR,16aS)-9′-methyl-14a-{[(1-methylcyclopropyl)sulfonyl]carbamoyl}-5,16-dioxo-5′-(trifluoromethyl)-1,1′,2′,5,6,7,8,9,10,11,13a,14,14a,15,16,16a-hexadecahydrospiro[cyclopropa[e]pyrrolo[1,2-a][1,4]diazacyclopentadecine-2,3′-pyrano[2,3-c]quinolin]-6-yl]carbamate] stands 0.014 nM. The same measure, in the same setting: under `Cc1ccc2nc(C(F)(F)F)c3c(c2c1)CC[C@]1(C[C@H]2C(=O)N[C@]4(C(=O)NS(=O)(=O)C5(C)CC5)C[C@H]4/C=C\CCCCC[C@H](NC(=O)O[C@@H](C)C(C)C)C(=O)N2C1)O3` [Example 396, (2S)-3-methylbutan-2-yl [(2R,6S,12Z,13aS,14aR,16aS)-9′-methyl-14a-{[(1-methylcyclopropyl)sulfonyl]carbamoyl}-5,16-dioxo-5′-(trifluoromethyl)-1,1′,2′,5,6,7,8,9,10,11,13a,14,14a,15,16,16a-hexadecahydrospiro[cyclopropa[e]pyrrolo[1,2-a][1,4]diazacyclopentadecine-2,3′-pyrano[2,3-c]quinolin]-6-yl]carbamate] stands 0.009 nM; under `[2H]C([2H])(F)Oc1ccc2nc(C)c3c(c2c1)[C@H](F)C[C@]1(C[C@H]2C(=O)N[C@]4(C(=O)NS(=O)(=O)C5(C)CC5)C[C@H]4/C=C\CCCCC[C@H](NC(=O)OC(C)(C)C)C(=O)N2C1)O3` [Example 397, tert-butyl [(1′R,2S,6S,12Z,13aS,14aR,16aS)-1′-fluoro-9′-{[fluoro(^2H2)methyl]oxy}-5′-methyl-14a-{[(1-methylcyclopropyl)sulfonyl]carbamoyl}-5,16-dioxo-1,1′,2′,5,6,7,8,9,10,11,13a,14,14a,15,16,16a-hexadecahydrospiro[cyclopropa[e]pyrrolo[1,2-a][1,4]diazacyclopentadecine-2,3′-pyrano[2,3-c]quinolin]-6-yl]carbamate], 0.006 nM.
